PMC3681500, “Development of an orally-administrative MELK-targeting inhibitor that suppresses the growth of various types of human cancer” (Oncotarget, 2012)

Target: MELK (maternal embryonic leucine zipper kinase) (Homo sapiens, UniProt Q14680)
Test: IMAP kinase assay, high-throughput screen followed by dose-response
Assay type: biochemical

Sequence of MELK (maternal embryonic leucine zipper kinase) (Q14680 whole entry): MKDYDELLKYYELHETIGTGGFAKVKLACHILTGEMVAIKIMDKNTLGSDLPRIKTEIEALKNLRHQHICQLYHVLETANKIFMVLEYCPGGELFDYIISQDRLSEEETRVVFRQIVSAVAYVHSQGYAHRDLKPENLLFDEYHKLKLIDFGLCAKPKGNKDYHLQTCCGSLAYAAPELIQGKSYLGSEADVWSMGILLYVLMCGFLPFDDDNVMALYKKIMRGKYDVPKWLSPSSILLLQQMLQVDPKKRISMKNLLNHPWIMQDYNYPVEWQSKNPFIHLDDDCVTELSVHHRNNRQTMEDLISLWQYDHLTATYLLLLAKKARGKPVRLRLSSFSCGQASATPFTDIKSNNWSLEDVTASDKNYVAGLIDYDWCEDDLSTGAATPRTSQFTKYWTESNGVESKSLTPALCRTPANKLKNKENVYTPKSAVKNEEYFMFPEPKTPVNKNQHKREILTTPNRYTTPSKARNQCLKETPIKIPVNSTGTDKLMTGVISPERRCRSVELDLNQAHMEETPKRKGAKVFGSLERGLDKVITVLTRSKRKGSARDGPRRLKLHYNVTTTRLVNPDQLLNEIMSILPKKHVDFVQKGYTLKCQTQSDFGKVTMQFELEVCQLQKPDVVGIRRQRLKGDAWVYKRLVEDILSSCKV

Work on `CCOC(=O)c1ccc2ncc(C(=O)OCC)c(Nc3ccc(NC(C)=O)cc3)c2c1` [compound 1, diethyl 4-(4-acetamidophenylamino) quinoline-3,6-dicarboxylate] yielded an IC50 of 4.8 µM.
